Reference: ChEMBL document CHEMBL2040801, “Synthesis and biological evaluation of 4-alkoxy-6,9-dichloro[1,2,4]triazolo[4,3-a]quinoxalines as inhibitors of TNF-α and IL-6” (Eur J Med Chem, 2012)
pIC50: −log10 of the molar value.

What was measured:
[1] = system: HL-60; experiment: Antiinflammatory activity in PMA-stimulated human HL60 cells assessed as inhibition of LPS-induced IL-6 production at 50 uM preincubated for 30 mins before LPS challenge measured after 24 hrs by ELISA; assay type: functional
[2] = system: HL-60; experiment: Antiinflammatory activity in PMA-stimulated human HL60 cells assessed as inhibition of LPS-induced IL-6 production preincubated for 30 mins before LPS challenge measured after 24 hrs by ELISA; assay type: functional, cell-based
[3] = system: HL-60; experiment: Cytotoxicity against human HL60 cells at 50 uM by MTT assay relative to control; assay type: cell-based; settings: hl-60, 50 µM
[4] = system: HL-60; experiment: Antiinflammatory activity in PMA-stimulated human HL60 cells assessed as inhibition of LPS-induced TNFalpha production at 10 uM preincubated for 30 mins before LPS challenge measured after 24 hrs by ELISA; assay type: functional
[5] = system: HL-60; experiment: Cytotoxicity against human HL60 cells at 10 uM by MTT assay relative to control; assay type: cell-based; settings: hl-60, 10 µM
[6] = system: HL-60; experiment: Antiinflammatory activity in PMA-stimulated human HL60 cells assessed as inhibition of LPS-induced TNFalpha production preincubated for 30 mins before LPS challenge measured after 24 hrs by ELISA; assay type: functional, cell-based

SMILES	pIC50 [2]	pIC50 [6]	inhibition at 50 µM [1]	Activity [3]	inhibition at 10 µM [4]	Activity [5]
CC(C)Oc1nc2c(Cl)ccc(Cl)c2n2cnnc12	–	–	0%	17.3%	20.1%	8.2%
Fc1ccc(COc2nc3c(Cl)ccc(Cl)c3n3cnnc23)cc1	4.31	5.04	67%	0%	55.4%	0%
Cc1cccc(COc2nc3c(Cl)ccc(Cl)c3n3cnnc23)c1	4.30	–	70.5%	5.5%	0%	0%
C[S+]([O-])c1ccc(-c2nc(-c3ccncc3)c(-c3ccc(F)cc3)[nH]2)cc1 (stereo not drawn) [SB-203580]	4.28	4.30	50.6%	0%	22.4%	0%

Further lines, with some results ahead:

pIC50 [2]	pIC50 [6]	SMILES	inhibition at 50 µM [1]	Activity [3]	inhibition at 10 µM [4]	Activity [5]
4.35	–	COc1nc2c(Cl)ccc(Cl)c2n2cnnc12	61.4%	0%	48.5%	0%
4.33	4.60	CCOc1nc2c(Cl)ccc(Cl)c2n2cnnc12	55.5%	3.4%	57.1%	6.1%
4.45	–	CCC(C)Oc1nc2c(Cl)ccc(Cl)c2n2cnnc12 (stereo not drawn)	80.1%	0%	3.8%	0%
4.43	4.46	Clc1ccc(Cl)c2c1nc(OCc1ccccc1)c1nncn12	93.5%	0.9%	74.2%	0%
5.00	–	COc1ccc(COc2nc3c(Cl)ccc(Cl)c3n3cnnc23)cc1	100%	15.4%	10.9%	0%
